In US5795905A, “CRF receptor antagonists and methods relating thereto” (Neurocrine Biosciences, Inc., priority 1995, dated 1998):

Each compound was assayed against T1, human CRF receptors (Homo sapiens, UniProt P34998) (assay: standard radioligand binding assay: displacement of radiolabeled CRF ligand from the CRF receptor). Conditions: Table 7 title: Ki ≤ 250 nM; cells stably transfected with human CRF receptors; [125I]tyrosine-ovine CRF ~200 pM; 2 hours at 22° C.
T1 construct: expressed in transfected cells
T1 sequence (P34998 24-415): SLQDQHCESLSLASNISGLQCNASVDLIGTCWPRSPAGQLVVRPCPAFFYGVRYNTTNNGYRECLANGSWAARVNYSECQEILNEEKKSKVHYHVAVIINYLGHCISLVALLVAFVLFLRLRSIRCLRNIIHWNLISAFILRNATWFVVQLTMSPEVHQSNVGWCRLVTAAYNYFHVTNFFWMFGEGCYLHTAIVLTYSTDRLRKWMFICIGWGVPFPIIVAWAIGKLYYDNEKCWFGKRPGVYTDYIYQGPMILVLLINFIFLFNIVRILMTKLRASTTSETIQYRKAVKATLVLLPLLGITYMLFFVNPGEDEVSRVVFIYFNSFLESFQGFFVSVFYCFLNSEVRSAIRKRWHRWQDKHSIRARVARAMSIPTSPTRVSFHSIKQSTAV
From the text: The effectiveness of a compound as a CRF receptor antagonist may be determined by various assay methods. Suitable CRF antagonists of this invention are capable of inhibiting the specific binding of CRF to its receptor and antagonizing activities associated with CRF. A compound of structures I through VI may be assessed for activity as a CRF antagonist by one or more generally accepted assays for this purpose, including (but not limited to) the assays disclosed by DeSouza et al. (J. Neuroscience 7:88, 1987) and Battaglia et al. (Synapse 1:572, 1987). […] CRF receptor affinity may be determined by binding studies that measure the ability of a compound to inhibit the binding of a radiolabeled CRF (e.g., [^125 I]tyrosine-CFR) to its receptor (e.g. receptors prepared from rat cerebral cortex membranes). The radioligand binding assay described by DeSouza et al. (supra, 1987) provides an assay for determining a compound's affinity for the CRF receptor. Such activity is typically calculated from the IC50 as the concentration of a compound necessary to displace 50% of the radiolabeled ligand from the receptor, and is reported as a "Ki " value calculated by the following equation: [formula] where L=radioligand and KD =affinity of radioligand for receptor (Cheng and Prusoff, Biochem. Pharmacol. 22:3099, 1973).
Compounds were evaluated for binding activity to the CRF receptor by a standard radioligand binding assay as generally described by DeSouza et al. (J. Neurosci. 7:88-100, 1987). By utilizing various radiolabeled CRF ligands, the assay may be used to evaluate the binding activity of the compounds of the present invention with any CRF receptor subtype. Briefly, the binding assay involves the displacement of a radiolabeled CRF ligand from the CRF receptor.
More specifically, the binding assay was performed in 1.5 ml Eppendorf tubes using approximately 1×10^6 cells per tube stably transfected with human CRF receptors. Each tube received about 0.1 ml of assay buffer (e.g., Dulbecco's phosphate buffered saline, 10 mM magnesium chloride, 20 μM bacitracin) with or without unlabeled sauvagine, urotensin I or CRF (final concentration, 1 μM) to determine nonspecific binding, 0.1 ml of [^125 ] tyrosine--ovine CRF (final concentration ~200 pM or approximately the KD as determined by Scatchard analysis) and 0.1 ml of a membrane suspension of cells containing the CRF receptor. The mixture was incubated for 2 hours at 22° C. followed by the separation of the bound and free radioligand by centrifugation. Following two washes of the pellets, the tubes were cut just above the pellet and monitored in a gamma counter for radioactivity at approximately 80% efficiency. All radioligand binding data was analyzed using the non-linear least-square curve-fitting program LIGAND of Munson and Rodbard (Anal. Biochem. 107:220, […]).
Binding activity corresponds to the concentration (nM) of the compound necessary to displace 50% of the radiolabeled ligand from the receptor.

Compound | Ki
CCCN(c1nccc(-c2c(Cl)cc(Cl)cc2Cl)n1)C(C1CC1)C1CC1 [II-11, 2-(N-dicyclopropylmethyl-N-propylamino)-4-(2',4',6'-trichlorophenyl)-pyrimidine] | ≤ 250 nM
CCCN(c1ncc(C)c(-c2c(OC)cc(OC)cc2OC)n1)C(C1CC1)C1CC1 [II-25] | ≤ 250 nM
CCCN(c1ncc(C)c(-c2ccc(Cl)cc2OC)n1)C(C1CC1)C1CC1 [II-32] | ≤ 250 nM
CCCN(c1ncc(C)c(-c2ccc(OC)cc2OC)n1)C(C1CC1)C1CC1 [II-39] | ≤ 250 nM
CCCN(c1nccc(-c2ccc(OC)cc2C)n1)C(C1CC1)C1CC1 [II-43] | ≤ 250 nM
CCCN(c1nc(N)nc(-c2c(Cl)cc(Cl)cc2Cl)n1)C(C1CC1)C1CC1 [IV-2, 2-(2',4',6'-trichlorophenyl)-4-(N-dicyclopropylmethyl-N-propylamino)-6-aminotriazine] | ≤ 250 nM
CCCN(c1nc(N)nc(-c2ccc(Cl)cc2Cl)n1)C(C1CC1)C1CC1 [IV-7] | ≤ 250 nM
CCCN(c1ncnc(-c2ccc(Cl)cc2Cl)n1)C(C1CC1)C1CC1 [IV-8, 2-(N-dicyclopropylmethyl-N-propylamino)-4-(2',4'-dichlorophenyl)triazine] | ≤ 250 nM

Next, values leading:

Ki | Compound
≤ 250 nM | CCCN(c1ncc(C)c(-c2ccc(Cl)cc2)n1)C(C1CC1)C1CC1 [II-7]
≤ 250 nM | CCCN(c1ncc(C)c(-c2ccc(Br)cc2)n1)C(C1CC1)C1CC1 [II-16, 2-(N-dicyclopropylmethyl-N-propylamino)-4-(4'-bromophenyl)-5-methylpyrimidine]
≤ 250 nM | CCCN(c1nccc(-c2c(OC)cc(OC)cc2OC)n1)C(C1CC1)C1CC1 [II-22, 2-(N-dicyclopropylmethyl-N-propylamino)-4-(2',4',6'-trimethoxyphenyl)pyrimidine]
≤ 250 nM | CCCN(c1nccc(-c2c(OC)cccc2OC)n1)C(C1CC1)C1CC1 [II-23, 2-(N-dicyclopropylmethyl-N-propyl)-4-(2',6'-dimethoxyphenyl)pyrimidine]
≤ 250 nM | CCCN(c1nccc(-c2c(C)cc(C)cc2C)n1)C(C1CC1)C1CC1 [II-24]
≤ 250 nM | CCCN(c1nccc(-c2c(OC)cc(Cl)cc2OC)n1)C(C1CC1)C1CC1 [II-35]
